From ChEMBL document CHEMBL4052669, “Synthesis, molecular modelling and CYP24A1 inhibitory activity of novel of (E)-N-(2-(1H-imidazol-1-yl)-2-(phenylethyl)-3/4-styrylbenzamides” (Bioorg Med Chem, 2017) come the findings set out here.

pIC50: −log10 of the molar value.

The target in the experiment is T1, 1,25-dihydroxyvitamin D(3) 24-hydroxylase, mitochondrial (Homo sapiens, UniProt Q07973).
T1 sequence (Q07973 whole entry): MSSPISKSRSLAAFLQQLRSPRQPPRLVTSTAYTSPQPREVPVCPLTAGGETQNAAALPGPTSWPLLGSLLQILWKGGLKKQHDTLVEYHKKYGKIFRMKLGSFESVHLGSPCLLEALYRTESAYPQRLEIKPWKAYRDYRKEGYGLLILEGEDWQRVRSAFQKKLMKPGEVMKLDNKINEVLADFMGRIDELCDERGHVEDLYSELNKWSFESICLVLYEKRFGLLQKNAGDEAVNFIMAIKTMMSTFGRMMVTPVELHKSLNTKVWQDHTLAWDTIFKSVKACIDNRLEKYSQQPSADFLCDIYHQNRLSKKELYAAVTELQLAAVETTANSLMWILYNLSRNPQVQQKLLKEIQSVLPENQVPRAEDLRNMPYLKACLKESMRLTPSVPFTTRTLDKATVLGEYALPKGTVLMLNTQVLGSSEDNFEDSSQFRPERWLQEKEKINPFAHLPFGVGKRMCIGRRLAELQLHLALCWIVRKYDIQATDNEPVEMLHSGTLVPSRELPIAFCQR
Put plainly: Inhibition of MBP-tagged human CYP24A1 expressed Escherichia coli BL21-Gold(DE3) incubated for 25 mins in presence of Adx, AdR 1,25(OH)2D3 and NADPH by HPLC method.

By pIC50 is commonly meant the negative decadic logarithm of the IC50, by convention in mol/L. With `O=C(NCC(c1ccccc1C(F)(F)F)n1ccnc1)c1ccc(/C=C/c2ccccc2)cc1` (stereo not given), the pIC50 is 6.46.
`O=C(NCC(c1ccc(C(F)(F)F)cc1)n1ccnc1)c1cccc(/C=C/c2ccccc2)c1` (stereo not given): the pIC50 was 6.82.
In the case of `Cc1ccc(C(CNC(=O)c2ccc(/C=C/c3ccccc3)cc2)n2ccnc2)cc1C` (stereo not given), the pIC50 was 6.51.
For the compound `O=C(NCC(c1ccccc1)n1ccnc1)c1cccc(/C=C/c2ccccc2)c1` (stereo not given), the pIC50 was 6.72.
The figure for `COc1ccc(C(CNC(=O)c2ccc(/C=C/c3ccccc3)cc2)n2ccnc2)cc1` (stereo not given) is 6.96; for `O=C(NCC(c1ccccc1)n1ccnc1)c1cccc(/C=C/c2ccccc2C(F)(F)F)c1` (stereo not given) it is 6.47.
The figure for `COc1ccc(/C=C/c2ccc(C(=O)NCC(c3ccc(Cl)cc3)n3ccnc3)cc2)cc1OC` (stereo not given) is 6.92; for `O=C(NCC(c1ccc(C(F)(F)F)cc1)n1ccnc1)c1ccc(/C=C/c2ccccc2)cc1` (stereo not given) it is 6.74.
The figure for `O=C(NCC(c1ccc(Cl)cc1)n1ccnc1)c1cccc(/C=C/c2ccccc2)c1` (stereo not given) is 6.80; for `O=C(NCC(c1ccc(Cl)cc1)n1ccnc1)c1ccc(/C=C/c2ccccc2)cc1` (stereo not given) it is 6.68.
